How the values were obtained:
Gsα = conditions: in utero exposure to ethanol; Western blot, normalized to β-actin; pregnant Sprague-Dawley dams, last two weeks of gestation
Dio3 [1] = conditions: in utero exposure to ethanol; Western blot, normalized to β-actin; pregnant Sprague-Dawley dams, last two weeks of gestation
TRα = conditions: in utero exposure to ethanol; Western blot, normalized to β-actin; pregnant Sprague-Dawley dams, last two weeks of gestation
GR = conditions: in utero exposure to ethanol; Western blot, normalized to β-actin; pregnant Sprague-Dawley dams, last two weeks of gestation
Dio3 [2] = conditions: fetal and adult frontal cortex and hippocampus; thyroid hormone levels inversely affected

CCO [ethanol]
Gsα protein levels in placenta (Gsα): up-regulation
Dio3 protein levels in placenta (Dio3 [1]): up-regulation
TRα protein levels in placenta (TRα): down-regulation
GR protein levels in placenta (GR): down-regulation
Dio3 imprinting and total expression patterns (Dio3 [2]): alters

Source: patent US8383352B2, “Detection of maternal alcohol exposure” (Northwestern University, priority 2009, dated 2013)
